Measured values published in ChEMBL document CHEMBL4011631, “Trisubstituted Pyridinylimidazoles as Potent Inhibitors of the Clinically Resistant L858R/T790M/C797S EGFR Mutant: Targeting of Both Hydrophobic Regions and the Phosphate Binding Site” (J Med Chem, 2017).
The source made the active and inactive calls. No cut-off for these calls is given here.

Key:
NCI-H1975 = test: cells; format: functional, cell-based; conditions: Homo sapiens, NCI-H1975, 96 h
[1] = Drug degradation in human liver microsomes at 100 uM preincubated for 5 mins with NADPH-regenerating system followed by liver microsomes addition measured after 240 mins by LC-MS analysis; format: ADME, microsome; conditions: read-out: Drug degradation
[2] = test system: Epidermal growth factor receptor (Homo sapiens), P00533 [T790M]; test: Covalent binding affinity to EGFR T790M mutant (unknown origin) at 100 uM after 1 hr by mass spectrometric analysis
A-431 = test: cells; format: ADME, cell-based; conditions: Homo sapiens, A-431, 96 h
Description: Antiproliferative activity against human A431 cells harboring wild type EGFR assessed as growth inhibition after 96 hrs by CellTiter-Glo assay

[3] = molecular target: T1, Epidermal growth factor receptor (Homo sapiens, UniProt P00533); format: ADME
Description: Inhibition of human N-terminal GST-fused EGFR cytoplasmic domain (669 to 1210 residues) expressed in baculovirus using TK-substrate-biotin preincubated for 30 mins followed by substrate addition measured after 25 mins by HTFR assay

[4] = molecular target: T2, Epidermal growth factor receptor (Homo sapiens, UniProt P00533, L858R)
[5] = molecular target: T3, Epidermal growth factor receptor (Homo sapiens, UniProt P00533, L858R/T790M)
[6] = molecular target: Epidermal growth factor receptor (Homo sapiens, UniProt P00533, C797S/L858R/T790M); test: Inhibition of human EGFR T790M/C797S/L858R triple mutant preincubated for 20 mins followed by [33P]ATP addition measured after 2 hrs
[7] = molecular target: T1, Epidermal growth factor receptor; conditions: for kinact: human
Description: Inhibition of human N-terminal GST-fused EGFR cytoplasmic domain (669 to 1210 residues) expressed in baculovirus using TK-substrate-biotin incubated for 2 to 90 mins by HTFR assay

[8] = molecular target: T2, Epidermal growth factor receptor; remark: listed apart in the source
[9] = molecular target: T3, Epidermal growth factor receptor; remark: listed apart in the source
[10] = molecular target: T1, Epidermal growth factor receptor; conditions: read-out: Ratio
Description: Ratio of Kinact for human N-terminal GST-fused EGFR cytoplasmic domain (669 to 1210 residues) expressed in baculovirus to Ki for human N-terminal GST-fused EGFR cytoplasmic domain (669 to 1210 residues) expressed in baculovirus

SMILES | EC50 (NCI-H1975) | metabolised at 4 h, 100 µM [1] | Activity [2] | EC50 (A-431) | IC50 [3] | IC50 [4] | IC50 [5] | IC50 [6] | Ki [7] | kinact [7] | Ki [8] | Ki [9] | kinact/KI [10]
C=CC(=O)Nc1ccc(OC)c(Nc2cc(-c3[nH]c(SC)nc3-c3ccc(F)cc3)ccn2)c1 | < 14 nM | 23% | Active | 4100 nM |  |  |  |  |  |  |  |  | 
CSc1nc(-c2ccc(F)cc2)c(-c2ccnc(Nc3cc(F)cc([N+](=O)[O-])c3)c2)[nH]1 | 30000 nM |  |  | 19000 nM | 265 nM | 55 nM | 586 nM |  |  |  |  |  | 
NCCCSc1nc(-c2ccc(F)cc2)c(-c2ccnc(Nc3ccccc3)c2)[nH]1 | 8400 nM |  |  | 7400 nM | 55 nM | 12 nM | 240 nM |  |  |  |  |  | 
CN(C)C/C=C/C(=O)NCCSc1nc(-c2ccc(F)cc2)c(-c2ccnc(Nc3ccccc3)c2)[nH]1 | > 5000 nM |  |  | 6600 nM | 2.7 nM | 1.9 nM | 18 nM |  |  |  |  |  | 
CSc1nc(-c2ccc(F)cc2)c(-c2ccnc(Nc3cc(N4CCN(C)CC4)cc([N+](=O)[O-])c3)c2)[nH]1 | 13000 nM |  |  | 7800 nM | 2.1 nM | < 1 nM | 12 nM |  |  |  |  |  | 
C=CC(=O)NCCSc1nc(-c2ccc(F)c(C(F)(F)F)c2)c(-c2ccnc(Nc3ccccc3)c2)[nH]1 | 3100 nM |  |  | 11000 nM | 45 nM | 144 nM | 646 nM |  |  |  |  |  | 
N#CCCSc1nc(-c2ccc(F)cc2)c(-c2ccnc(Nc3ccccc3)c2)[nH]1 | 16000 nM |  |  | 17000 nM | 109 nM | 40 nM | 746 nM |  |  |  |  |  | 
CCC(=O)Nc1cccc(Nc2cc(-c3[nH]c(SC)nc3-c3ccc(F)cc3)ccn2)c1 | 2200 nM |  | inactive | 1500 nM | 22 nM | 6.8 nM | 93 nM | 223 nM |  |  |  |  | 
C=CC(=O)Nc1ccc(OC)c(Nc2cc(-c3[nH]c(SC)nc3C(C)(C)C)ccn2)c1 | 18000 nM |  |  | 20000 nM | 57 nM | 16 nM | 485 nM |  |  |  |  |  | 
C=CC(=O)Nc1ccc(OC)c(Nc2cc(-c3[nH]c(SC)nc3-c3cccs3)ccn2)c1 | 84 nM |  |  | 7400 nM | < 1 nM | < 1 nM | < 1 nM |  |  |  |  |  | 
C=CC(=O)NCCSc1nc(-c2ccc(F)cc2)c(-c2ccnc(Nc3ccccc3)c2)[nH]1 | 2400 nM |  |  | 12000 nM | 1.6 nM | 2.2 nM | 38 nM |  | 1.6 nM | 0.0015 s⁻¹ | 0.38 nM | 6 nM | 940000 M⁻¹ s⁻¹
CCC(=O)Nc1ccc(OC)c(Nc2cc(-c3[nH]c(CCCO)nc3-c3ccc(F)cc3)ccn2)c1 | 7200 nM |  |  | 17000 nM | < 1 nM | < 1 nM | < 1 nM | 7 nM |  |  |  |  | 
Fc1ccc(-c2nc(SCCN3CCOCC3)[nH]c2-c2ccnc(Nc3ccccc3)c2)cc1 | 15000 nM |  |  | 10000 nM | 183 nM | 75 nM | 1250 nM |  |  |  |  |  | 
C=CC(=O)Nc1ccc(OC)c(Nc2cc(-c3[nH]c(SC)nc3C)ccn2)c1 | 4100 nM |  |  | 9700 nM | 32 nM | 10 nM | 33 nM |  |  |  |  |  | 
C=CC(=O)N1CCC(Sc2nc(-c3ccc(F)cc3)c(-c3ccnc(Nc4ccccc4)c3)[nH]2)C1 (centres undefined) | 14000 nM |  |  | 17000 nM | 217 nM | 25 nM | 417 nM |  |  |  |  |  | 
NCCSc1nc(-c2ccc(F)cc2)c(-c2ccnc(Nc3ccccc3)c2)[nH]1 | 7200 nM |  |  | 11000 nM | 4.8 nM | 2.6 nM | 29 nM |  |  |  |  |  | 
C=CC(=O)Nc1cccc(Nc2cc(-c3[nH]c(SC)nc3-c3ccc(F)cc3)ccn2)c1 | 190 nM |  | Active | 1700 nM | < 1 nM | < 1 nM | 3.3 nM |  |  |  |  |  | 
C=CC(=O)Nc1cccc(Oc2nc(Nc3ccc(N4CCN(C)CC4)cc3OC)ncc2Cl)c1 | 100 nM |  |  | 2200 nM |  |  |  |  |  |  |  |  | 
C=CC(=O)Nc1ccc(OC)c(Nc2cc(-c3[nH]c(CCCO)nc3-c3ccc(F)cc3)ccn2)c1 | 400 nM | 9% |  | 4000 nM | < 1 nM | < 1 nM | < 1 nM | 8 nM | 0.07 nM | 0.00267 s⁻¹ | 0.03 nM | 0.1 nM | 1.5e+07 M⁻¹ s⁻¹
C=CC(=O)N1CCC[C@@H]1CSc1nc(-c2ccc(F)cc2)c(-c2ccnc(Nc3ccccc3)c2)[nH]1 | 3400 nM |  |  | 6900 nM |  |  |  |  |  |  |  |  | 
C=CC(=O)Nc1ccc(OC)c(Nc2cc(-c3[nH]c(SC)nc3C3CCC3)ccn2)c1 | 2000 nM |  |  | 8900 nM | < 1 nM | < 1 nM | 6.8 nM |  |  |  |  |  | 

SMILES | EC50 (NCI-H1975) | metabolised at 4 h, 100 µM [1] | Activity [2] | EC50 (A-431) | IC50 [3] | IC50 [4] | IC50 [5] | IC50 [6] | Ki [7] | kinact [7] | Ki [8] | Ki [9] | kinact/KI [10]
C=CC(=O)N1CCC[C@H]1CSc1nc(-c2ccc(F)cc2)c(-c2ccnc(Nc3ccccc3)c2)[nH]1 | 4700 nM |  |  | 8800 nM |  |  |  |  |  |  |  |  | 
CC(=O)CCCSc1nc(-c2ccc(F)cc2)c(-c2ccnc(Nc3ccccc3)c2)[nH]1 | 14000 nM |  |  | 12000 nM | 185 nM | 76 nM | 1330 nM |  |  |  |  |  | 
CCC(=O)Nc1ccc(OC)c(Nc2cc(-c3cnc(SC)[nH]3)ccn2)c1 | > 30000 nM |  |  | 13000 nM | 1770 nM | 360 nM | 3510 nM |  |  |  |  |  | 
C=CC(=O)Nc1cccc(Nc2cc(-c3[nH]c(SCCNC(=O)CC)nc3-c3ccccc3)ccn2)c1 | 2800 nM |  |  | 1500 nM | < 1 nM | < 1 nM | 2.5 nM |  |  |  |  |  | 
C=CC(=O)NCc1cn(Cc2cccc(Nc3cc(-c4[nH]c(SC)nc4-c4ccc(F)cc4)ccn3)c2)nn1 | 23000 nM |  |  | 24000 nM | 164 nM | 46 nM | 597 nM |  |  |  |  |  | 
OCCSc1nc(-c2ccc(F)cc2)c(-c2ccnc(Nc3ccccc3)c2)[nH]1 | 16000 nM |  |  | 11000 nM | 11 nM | 1.1 nM | 83 nM |  |  |  |  |  | 
C=CC(=O)Nc1ccc(OC)c(Nc2cc(-c3[nH]c(SC)nc3-c3ccc4ccccc4c3)ccn2)c1 | 380 nM |  |  | 3000 nM | < 1 nM | < 1 nM | 1.1 nM |  |  |  |  |  | 
C=CC(=O)NCCCSc1nc(-c2ccc(F)cc2)c(-c2ccnc(Nc3ccccc3)c2)[nH]1 | 1300 nM |  |  | 1400 nM | 16 nM | 22 nM | 321 nM |  |  |  |  |  | 
C=CC(=O)Nc1ccc(OC)c(Nc2cc(-c3[nH]c(SC)nc3C3CCCC3)ccn2)c1 | 1400 nM |  |  | 7800 nM | < 1 nM | < 1 nM | 4.5 nM |  |  |  |  |  | 
C=CC(=O)Nc1cccc(Nc2cc(-c3[nH]c(SC)nc3-c3ccc(F)cc3)ccn2)n1 | 1500 nM |  |  | 1700 nM | < 1 nM | < 1 nM | 3.1 nM |  |  |  |  |  | 
C=CC(=O)NCCSc1nc(-c2ccccc2)c(-c2ccnc(Nc3ccccc3)c2)[nH]1 | 3200 nM |  |  | 11000 nM | 12 nM | 1.7 nM | 29 nM |  |  |  |  |  | 
C=CC(=O)Nc1cc(Nc2cc(-c3[nH]c(SC)nc3-c3ccc(F)cc3)ccn2)cc(N2CCN(C)CC2)c1 | 1100 nM | 27% |  | 1400 nM | < 1 nM | < 1 nM | < 1 nM | 11 nM |  |  |  |  | 
CN(C)C(=O)CSc1nc(-c2ccc(F)cc2)c(-c2ccnc(Nc3ccccc3)c2)[nH]1 | 16000 nM |  |  | 18000 nM |  |  |  |  |  |  |  |  | 
CCC(=O)Nc1ccc(OC)c(Nc2cc(-c3[nH]c(SC)nc3-c3ccc(F)cc3)ccn2)c1 | 4300 nM |  |  | 7700 nM | < 1 nM | < 1 nM | 5 nM | 167 nM |  |  |  |  | 
C=CC(=O)Nc1cc(Nc2cc(-c3[nH]c(SC)nc3-c3ccc(F)cc3)ccn2)cc(N2CCOCC2)c1 | 1300 nM |  |  | 1500 nM | < 1 nM | < 1 nM | < 1 nM | 53 nM |  |  |  |  | 
C=CC(=O)Nc1ccc(OC)c(Nc2cc(-c3[nH]c(SC)nc3C3CC3)ccn2)c1 | 2300 nM |  |  | 8000 nM | 2.3 nM | < 1 nM | 7.4 nM |  |  |  |  |  | 
C=CC(=O)NCc1cccc(Nc2cc(-c3[nH]c(SC)nc3-c3ccc(F)cc3)ccn2)c1 | 3400 nM |  |  | 14000 nM | 16 nM | 4.9 nM | 89 nM |  |  |  |  |  | 
C=CC(=O)Nc1ccc(OC)c(Nc2cc(-c3cnc(SC)[nH]3)ccn2)c1 | 2000 nM |  |  | 4100 nM | 17 nM | 5.6 nM | 8.6 nM |  |  |  |  |  | 
CSc1nc(-c2ccc(F)cc2)c(-c2ccnc(Nc3ccccc3)c2)[nH]1 | 22000 nM |  |  | 11000 nM | 24 nM | 2.5 nM | 130 nM |  |  |  |  |  | 
CCC(=O)NCCSc1nc(-c2ccc(F)cc2)c(-c2ccnc(Nc3ccccc3)c2)[nH]1 | 9700 nM |  |  | 16000 nM | 33 nM | 3.2 nM | 52 nM |  |  |  |  |  | 
